Test results reported in patent publication US20020022647A1, “2-(4-bromo or 4-iodo phenylamino) benzoic acid derivatives” (priority 1997, published 2002).

Target: GST-MEK (p45MEK) and GST-MAPK (p44MAP kinase) (Homo sapiens, UniProt Q02750)
Assay: Cascade assay for inhibitors of the MAP kinase pathway (In Vitro)
Format: biochemical
Conditions: incorporation of 32P into myelin basic protein
Description: Cascade Assay for Inhibitors of the MAP Kinase Pathway
Incorporation of ^32P into myelin basic protein (MBP) was assayed in the presence of a glutathione S-transferase fusion protein containing p44MAP kinase (GST-MAPK) and a glutathione S-transferase fusion protein containing p45MEK (GST-MEK). The assay solution contained 20 mM HEPES, pH 7.4, 10 mM MgCl2, 1 mM MnCl2, 1 mM EGTA, 50 μM [γ-^32P]ATP, 10 μg GST-MEK0.5 μg GST-MAPK and 40 μg MBP in a final volume of 100 μL. Reactions were stopped after 20 minutes by addition of trichloroacetic acid and filtered through a GF/C filter mat. ^32P retained on the filter mat was determined using a 1205 Betaplate. Compounds were assessed at 10 μM for ability to inhibit incorporation of ^32P.
To ascertain whether compounds were inhibiting GST-MEK or GST MAPK, two additional protocols were employed. In the first protocol, compounds were added to tubes containing GST-MEK, followed by addition of GST-MAPK, MBP and [γ-^32P]ATP. In the second protocol, compounds were added to tubes containing both GST-MEK and GST-MAPK, followed by MBP and [γ-^32P]ATP.

GST-MEK (p45MEK) and GST-MAPK (p44MAP kinase), sequence (Q02750 whole entry): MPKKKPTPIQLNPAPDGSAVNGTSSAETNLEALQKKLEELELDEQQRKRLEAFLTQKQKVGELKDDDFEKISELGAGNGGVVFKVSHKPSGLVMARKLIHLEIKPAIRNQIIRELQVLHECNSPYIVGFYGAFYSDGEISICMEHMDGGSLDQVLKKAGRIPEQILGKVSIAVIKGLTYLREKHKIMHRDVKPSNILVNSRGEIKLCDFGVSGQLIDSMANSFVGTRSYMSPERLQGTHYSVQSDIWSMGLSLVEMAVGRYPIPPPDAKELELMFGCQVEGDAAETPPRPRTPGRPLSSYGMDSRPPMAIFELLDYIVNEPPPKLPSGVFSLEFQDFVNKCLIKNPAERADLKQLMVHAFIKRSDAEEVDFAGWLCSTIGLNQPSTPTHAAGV

Row | IC50 [µM] | Compound
1 | 0.497 | Cc1cc(I)ccc1Nc1ccc(Cl)cc1C(=O)N(C)C [Example 39, 5-Chloro-2-(4-iodo-2-methyl-phenylamino)-N,N-dimethyl-benzamide]
2 | 1.001 | Cc1cc(I)ccc1Nc1ccc([N+](=O)[O-])cc1C(=O)N1CCC(O)C1 (stereo not drawn) [Example 95, (3-Hydroxy-pyrrolidin-1-yl)-[2-(4-iodo-2-methyl-phenylamino)-5-nitro-phenyl]-]
3 | 0.129 | Cc1cc(I)ccc1Nc1cc(F)ccc1C(=O)N(C)C [Example 36, 4-Fluoro-2-(4-iodo-2-methyl-phenylamino)-N,N-dimethyl-benzamide]
4 | 0.121 | CCNC(=O)c1ccc(F)cc1Nc1ccc(I)cc1C [Example 35, N-Ethyl-4-fluoro-2-(4-iodo-2-methyl-phenylamino)-benzamide]
5 | 2.902 | C=CCNC(=O)c1cc(Cl)ccc1Nc1ccc(I)cc1C [Example 193, N-Allyl-5-chloro-2-(4-iodo-2-methyl-phenylamino)-benzamide]
6 | 0.098 | CNC(=O)c1ccc(F)cc1Nc1ccc(I)cc1C [Example 34]
7 | 1.797 | Cc1cc(I)ccc1Nc1ccc(Cl)cc1C(=O)NC1CC1 [Example 192, 5-Chloro-N-cyclopropyl-2-(4-iodo-2-methyl-phenylamino)-benzamide]
8 | 0.521 | CCN(CC)CCNC(=O)c1cc(Cl)ccc1Nc1ccc(I)cc1C [Example 93, 5-Chloro-N-(2-diethylamino-ethyl)-2-(4-iodo-2-methyl-phenylamino)-benzamide]
9 | 0.114 | Cc1cc(I)ccc1Nc1c(C(=O)NCCN2CCCCC2)cc(Br)c(F)c1F [Example 55, 5-Bromo-3,4-difluoro-2-(4-iodo-2-methyl-phenylamino)-N-(2-piperidin-1-yl-ethyl)-benzamide]

More lines, now with the values behind:

Row | Compound | IC50 [µM]
10 | Cc1cc(I)ccc1Nc1ccc(Cl)cc1C(=O)[O-].[Na+] [Example 7, Sodium 5-Chloro-2-(4-iodo-2-methyl-phenylamino)-benzoate] | 0.072
11 | Cc1cc(I)ccc1Nc1ccc([N+](=O)[O-])cc1C(=O)NCc1ccncc1 [Example 91, 2-(4-Iodo-2-methyl-phenylamino)-5-nitro-N-pyridin-4-yl methyl-benzamide] | 2.071
12 | Cc1cc(I)ccc1Nc1ccccc1C(=O)O [Example 19, 2-(4-Iodo-2-methyl-phenylamino)-benzoic acid] | 0.524
13 | Cc1cc(I)ccc1Nc1cccc(F)c1C(=O)O [Example 26, 2-Fluoro-6-(4-iodo-2-methyl-phenylamino)-benzoic acid] | 2.609
14 | Cc1cc(I)ccc1Nc1ccc([N+](=O)[O-])cc1C(=O)O [Example 11, 2-(4-Iodo-2-methyl-phenylamino)-5-nitro-benzoic acid] | 0.128
15 | Cc1cc(I)ccc1Nc1ccc(F)cc1C(=O)O [Example 20, 5-Fluoro-2-(4-iodo-2-methyl-phenylamino)-benzoic acid] | 0.557
16 | Cc1ccc(Nc2ccc(I)cc2C)c(C(=O)O)c1 [Example 28, 5-Methyl-2-(4-iodo-2-methyl-phenylamino)-benzoic acid] | 3.670
17 | Cc1c(Nc2cc(F)ccc2C(=O)O)ccc(I)c1F [Example 10, 4-Fluoro-2-(3-fluoro-4-iodo-2-methyl-phenylamino)-benzoic acid] | 0.101
18 | Cc1cc(I)ccc1Nc1c(C(=O)O)cc(Br)c(F)c1F [Example 4, 5-Bromo-3,4-difluoro-2-(4-iodo-2-methyl-phenylamino)-benzoic acid] | 0.005
19 | O=C(O)c1cc(Cl)ccc1Nc1ccc(I)cc1Cl [Example 5, 5-Chloro-2-(2-chloro-4-iodo-phenylamino)--benzoic acid] | 0.066
20 | COc1ccc(NC(=O)c2ccc(OC)c([N+](=O)[O-])c2)cc1 [Example 32, 4-Methoxy-N-(4-methoxy-phenyl)-3-nitro-benzamide] | 0.028
21 | COc1ccc(Nc2ccc(I)cc2)c(C(=O)O)c1 [Example 24, 2-(4-Iodo-phenylamino)-5-methoxy-benzoic acid] | 1.944
